≈ marks a conversion by molar mass, not a printed value. Where two headings read alike, the source gives them in different places.

A word on the pKa: it is the pH at which an ionisable group is half protonated. The EC50 is the concentration needed to bring the measured effect to its halfway point.

Data set [1] can be described thus: pKa of NH proton by UV absorbance pH titration. The settings on record: dilute phosphate buffer. The class given is physicochemical.
Data set [2] can be described thus: Stability in buffer at 4°C. The class given is physicochemical. To be noted: 0.01 M Tris/HCl pH 7.4, concentration close to saturation.
In data set [3] the target is human α1β2γ2L GABAA receptor (Homo sapiens, UniProt P14867+P18507+P47870). The class given is cell-based.
A further data set deals with tadpoles. To be noted: cited from earlier work.
For the next data set, the target named is T1, human α1β3 GABAAR (Homo sapiens, UniProt P14867+P28472).
T1 sequence (P14867 28-456): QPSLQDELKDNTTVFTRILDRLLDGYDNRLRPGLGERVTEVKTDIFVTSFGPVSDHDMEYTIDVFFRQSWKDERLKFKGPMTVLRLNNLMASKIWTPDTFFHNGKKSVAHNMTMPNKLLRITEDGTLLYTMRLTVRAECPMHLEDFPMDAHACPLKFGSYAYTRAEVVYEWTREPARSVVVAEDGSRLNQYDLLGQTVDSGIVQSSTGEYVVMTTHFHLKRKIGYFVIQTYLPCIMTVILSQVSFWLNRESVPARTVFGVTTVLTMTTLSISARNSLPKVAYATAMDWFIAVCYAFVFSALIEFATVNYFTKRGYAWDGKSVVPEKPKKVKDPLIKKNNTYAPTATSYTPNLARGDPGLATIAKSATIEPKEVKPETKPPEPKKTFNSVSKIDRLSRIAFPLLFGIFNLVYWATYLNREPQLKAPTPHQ
T1 sequence (P28472 26-473): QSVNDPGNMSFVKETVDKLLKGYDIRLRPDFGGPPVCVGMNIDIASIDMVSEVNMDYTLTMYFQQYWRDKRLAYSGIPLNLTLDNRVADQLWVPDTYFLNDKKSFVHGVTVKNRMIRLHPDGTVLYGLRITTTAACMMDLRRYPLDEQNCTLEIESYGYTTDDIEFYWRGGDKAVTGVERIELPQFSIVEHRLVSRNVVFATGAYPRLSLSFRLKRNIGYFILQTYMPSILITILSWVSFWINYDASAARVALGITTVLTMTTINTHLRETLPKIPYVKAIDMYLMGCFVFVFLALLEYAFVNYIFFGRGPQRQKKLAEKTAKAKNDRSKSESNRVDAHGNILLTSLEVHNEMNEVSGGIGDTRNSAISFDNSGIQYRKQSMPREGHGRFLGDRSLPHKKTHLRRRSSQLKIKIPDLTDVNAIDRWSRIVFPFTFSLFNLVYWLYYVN
The settings on record: cited from earlier work.

The conditions of data set [4]: cited from earlier work.
The conditions of data set [5]: cited from earlier work. The source holds these as a separate data set.
For data set [6] the following is noted: cited from earlier work. This is another data set of the same source.
The test system of a further data set is GABAA receptor. To be noted: concentrations close to anesthetic EC50 (65 μM); cited from earlier work.
Setting [7] is: read-out: general anesthetic EC50.
The mark [8] stands for this setting: read-out: EC50, tadpole loss of righting reflex.

human α1β2γ2L GABAA receptor, sequence (P47870 25-512 limits assumed, one chain of several): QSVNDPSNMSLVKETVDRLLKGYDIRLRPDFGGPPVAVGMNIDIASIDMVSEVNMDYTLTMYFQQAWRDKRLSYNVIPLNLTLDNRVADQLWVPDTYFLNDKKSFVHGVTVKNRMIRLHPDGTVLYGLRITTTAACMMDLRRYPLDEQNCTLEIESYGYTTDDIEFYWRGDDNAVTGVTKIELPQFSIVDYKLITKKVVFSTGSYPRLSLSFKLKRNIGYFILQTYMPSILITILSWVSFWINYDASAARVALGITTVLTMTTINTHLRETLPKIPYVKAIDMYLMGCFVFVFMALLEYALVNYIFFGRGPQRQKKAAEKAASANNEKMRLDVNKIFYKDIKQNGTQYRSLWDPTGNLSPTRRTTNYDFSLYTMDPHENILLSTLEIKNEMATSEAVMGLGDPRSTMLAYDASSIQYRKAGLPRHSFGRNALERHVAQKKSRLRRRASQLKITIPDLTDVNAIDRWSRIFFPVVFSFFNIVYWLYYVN
human α1β2γ2L GABAA receptor, sequence (P18507 40-475, one chain of several): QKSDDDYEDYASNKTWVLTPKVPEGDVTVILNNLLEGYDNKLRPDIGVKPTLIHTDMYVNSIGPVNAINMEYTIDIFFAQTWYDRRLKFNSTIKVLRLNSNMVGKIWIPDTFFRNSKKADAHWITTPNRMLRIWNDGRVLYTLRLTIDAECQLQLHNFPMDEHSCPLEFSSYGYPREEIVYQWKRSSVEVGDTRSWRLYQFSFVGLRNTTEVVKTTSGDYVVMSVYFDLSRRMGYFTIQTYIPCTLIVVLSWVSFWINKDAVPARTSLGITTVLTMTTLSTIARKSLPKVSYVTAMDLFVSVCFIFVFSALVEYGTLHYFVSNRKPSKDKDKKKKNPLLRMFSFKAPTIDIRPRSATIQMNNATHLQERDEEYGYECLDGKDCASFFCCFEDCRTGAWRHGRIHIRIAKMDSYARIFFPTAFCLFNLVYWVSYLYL

`C=CCC1(c2cccc(C3(C(F)(F)F)N=N3)c2)C(=O)NC(=O)N(C)C1=O` (racemic) [(±)-14, (±)-5-Allyl-1-methyl-5-[3-(3-trifluoromethyl-3H-diazirin-3-yl)-phenyl]-pyrimidine-2,4,6-trione]: the pKa in data set [1] stood at 7.48 ± 0.08. In data set [2], the “time stable in buffer” value is “at least 2.5 days”.

With `NCCCC(=O)O` [GABA, γ-aminobutyric acid], in [3] (GABA alone), the “GABA concentration response nH” value was found to be 1.8 ± 0.1.

With `CCOC(=O)c1cncn1[C@H](C)c1ccccc1` [R-(+)-etomidate], the EC50 with tadpoles (setting [7]) is 2.3 µM.

As to `C=CC[C@@]1(c2cccc(C3(C(F)(F)F)N=N3)c2)C(=O)NC(=O)N(C)C1=O` [R-(−)-14], the “GABA nH in the presence of compound” value in data set [3] (8 μM compound) was found to be 1.0 ± 0.1.

On to `C[C@H](c1ccccc1)n1cncc1C(=O)OCc1ccc(C2(C(F)(F)F)N=N2)cc1` [aryldiazirine analog of etomidate], for which the “efficiency of α1β3 GABAAR subunit photolabeling” value at human α1β3 GABAAR is recorded as 0.5%.

Consider `CCC1(c2ccccc2)C(=O)NC(=O)N(C)C1=O` (stereo not drawn) [mephobarbital], for which the octanol/water partition coefficient in data set [4] is 69. In addition, the EC50 in the data set on tadpoles (setting [8]) was 90 µM. In [5], the solubility in water is 600 µM (≈ 148 µg/mL). For the same compound, the pKa in data set [6] is reported as 7.65.

On to `C=CCC1(C(C)C#CCC)C(=O)N=C(O)N(C)C1=O` (stereo not drawn) [methohexital], for which the EC50 in the data set on tadpoles (setting [8]) is 20 µM.

On to `CCCC(C)C1(CC)C(=O)NC(=O)NC1=O` (stereo not drawn) [pentobarbital, 5-ethyl-5-(pentan-2-yl)pyrimidine-2,4,6(1H,3H,5H)-trione], for which, in the data set on GABAA receptor, the “fold potentiation of 10 μM GABA currents” value is on record as 4-6 fold. Further, in the data set on tadpoles (read-out: EC50 producing anesthesia in tadpoles), the EC50 is approximately 140 µM.

Regarding `CCC1(c2ccccc2)C(=O)NC(=O)NC1=O` [phenobarbital], the EC50 in the data set with tadpoles (setting [8]) was 3300 µM.

Consider `CC(C)c1cccc(C(C)C)c1O` [propofol], for which, in the data set on tadpoles (setting [7]), the EC50 was 2.2 µM.
